The record followed here is US12344623B2, “Thiazolopyridine derivatives as adenosine receptor antagonists” (Merck Patent GmbH, priority 2019, dated 2025).

In general, IC50 refers to the concentration at which inhibition is half-maximal.

Bounds are passed on as bounds.

Assay type in all cases: cell-based
For one assay, the target named is T1, human A2B receptor (Homo sapiens, UniProt P29275).
T1 construct: expressed in transfected cells; host or cells: HEK293
T1 sequence (P29275 1-332): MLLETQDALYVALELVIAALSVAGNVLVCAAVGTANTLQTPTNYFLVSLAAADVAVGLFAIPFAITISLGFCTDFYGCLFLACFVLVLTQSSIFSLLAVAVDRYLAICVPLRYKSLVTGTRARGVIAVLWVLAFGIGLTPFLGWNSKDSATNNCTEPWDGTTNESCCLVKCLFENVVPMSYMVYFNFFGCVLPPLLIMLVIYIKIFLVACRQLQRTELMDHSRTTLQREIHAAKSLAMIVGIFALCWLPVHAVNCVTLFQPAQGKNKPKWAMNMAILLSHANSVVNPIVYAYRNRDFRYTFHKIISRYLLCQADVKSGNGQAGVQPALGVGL
The assay can be described thus: Functional A2B receptor activity, recombinant HEK293 cells, cAMP (HTRF), agonist NECA. The following applies: read-out: Functional A2B receptor activity, HEK293, cAMP, IC50. Summed up: (§1)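 Cellular cAMP measured by HTRF after 30 min incubation of cells with forskolin, test compounds and agonist. Data normalized to inhibitor control and DMSO neutral control, then curve-fitted.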

The next assay has as its target T2, human A1 receptor (Homo sapiens, UniProt P30542).
T2 construct: expressed in transfected cells; host or cells: CHO
T2 sequence (P30542 1-326): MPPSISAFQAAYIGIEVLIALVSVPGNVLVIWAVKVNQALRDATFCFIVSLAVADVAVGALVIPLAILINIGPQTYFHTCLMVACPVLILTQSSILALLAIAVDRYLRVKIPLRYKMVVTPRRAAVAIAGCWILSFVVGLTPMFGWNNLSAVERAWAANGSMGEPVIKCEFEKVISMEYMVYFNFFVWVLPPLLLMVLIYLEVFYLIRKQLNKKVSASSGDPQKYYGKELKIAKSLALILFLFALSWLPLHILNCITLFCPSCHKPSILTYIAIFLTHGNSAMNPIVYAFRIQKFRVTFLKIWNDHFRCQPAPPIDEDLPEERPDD
As to the kind of experiment: Functional A1 receptor activity, recombinant CHO cells, cAMP (HTRF), forskolin, agonist CPA. The following applies: recombinant CHO cells, forskolin, agonist CPA; read-out: Functional A1 receptor activity, CHO, cAMP, IC50. Summed up: (§2)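 Recombinant CHO cells expressing A1 or A3 receptor (Gi-coupled) were stimulated with forskolin together with test compound and agonist (CPA for A1, IB-MECA for A3), incubated 30 min, then cellular cAMP was read by HTRF. Data were normalized to inhibitor control and DMSO neutral control, then curve-fitted.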
In general terms: Time-resolved FRET reads energy transfer from a long-lived donor to a nearby acceptor.

The target of another assay is T3, human A3 receptor (Homo sapiens, UniProt P0DMS8).
T3 construct: expressed in transfected cells; host or cells: CHO
T3 sequence (P0DMS8 1-318): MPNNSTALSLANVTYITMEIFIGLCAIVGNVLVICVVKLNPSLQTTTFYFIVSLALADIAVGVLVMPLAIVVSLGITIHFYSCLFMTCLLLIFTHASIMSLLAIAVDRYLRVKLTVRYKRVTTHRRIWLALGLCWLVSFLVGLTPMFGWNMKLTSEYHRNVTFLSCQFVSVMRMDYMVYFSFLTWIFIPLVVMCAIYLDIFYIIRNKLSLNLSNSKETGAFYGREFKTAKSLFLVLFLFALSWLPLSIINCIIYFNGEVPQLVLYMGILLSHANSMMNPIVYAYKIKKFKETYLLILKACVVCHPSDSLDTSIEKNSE
The assay can be described thus: Functional A3 receptor activity, recombinant CHO cells, cAMP (HTRF), forskolin, agonist IB-MECA. The following applies: recombinant CHO cells, forskolin, agonist IB-MECA; read-out: Functional A3 receptor activity, CHO, cAMP, IC50. Summed up: as §2

The test system of another assay is mouse Pan T cells. As to the kind of experiment: mTcell assay, cAMP, agonist NECA. The following applies: Mus musculus, T-cell. The text has this: Adenosine (Ado) in tumor microenvironment can inhibit T cell activity by signaling through A2A receptors and suppress cytokine secretion by T cells. […] Potential A2A antagonists or A2A/A2B dual antagonists can rescue T cells from this inhibition. Herein, we describe the in vitro system we established using Pan T cells from mouse spleens to screen potential A2A antagonists or A2A/A2B dual antagonists for their activity. The method described involves the use of CD3/CD28 pre-coated beads to stimulate Pan T cells purified from mouse splenocytes, combined with the addition of A2A agonist along with potential A2A or A2A/A2B dual antagonists to evaluate potentiation of T cell cytokine production.
Pan T-cells are isolated from black 6 mice by manual dissociation and purified using a Miltenyi Pan T-cell isolation kit. The isolated T-cells are activated in 96 well plates for 48 hours using anti-CD3/CD28 beads in T-cell proliferation media.
After 48 hours, the T-cells are pooled, counted and suspended in serum free media containing 0.1% BSA. The cells are plated at 50,000 cells per well in 10 ul of media and incubated for 2 hours at 37° C. Test compounds are dispensed into the wells at a 10-point dose response, starting at a concentration of 10 uM. […] The plates are incubated for 30 minutes at 37° C. and assayed for cAMP levels using the Cisbio cAMP Dynamic2 reagent kit by adding 10 ul of the kit reagents to each well. The plates are incubated for 1 hour at room temperature and the HTRF signal is read on an Envision plate reader. The raw data is analyzed in Genedata Screener and the resulting data is loaded into the database.

Assay [1] addresses T4, human A2A receptor (Homo sapiens, UniProt P29274). The assay can be described thus: Human T cells, endogenous A2A receptor, cAMP, agonist NECA. As to conditions: read-out: hTcell data, cAMP, IC50. A digest of the protocol: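 Pan T cells isolated from fresh human blood PBMC, endogenously expressing Gs-coupled A2A, treated with compounds. Cellular cAMP measured by HTRF after 1 h; data normalized to inhibitor control and DMSO neutral control, then curve-fitted.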

The target of assay [2] is T4, human A2A receptor. The assay can be described thus: Functional A2A receptor activity, recombinant HEK293 cells, cAMP (HTRF), agonist NECA. Also noted: expressed in transfected cells; host or cells: HEK293. As to conditions: read-out: Functional A2A receptor activity, HEK293, cAMP, IC50. Summed up: as §1

T4 sequence (P29274 whole entry): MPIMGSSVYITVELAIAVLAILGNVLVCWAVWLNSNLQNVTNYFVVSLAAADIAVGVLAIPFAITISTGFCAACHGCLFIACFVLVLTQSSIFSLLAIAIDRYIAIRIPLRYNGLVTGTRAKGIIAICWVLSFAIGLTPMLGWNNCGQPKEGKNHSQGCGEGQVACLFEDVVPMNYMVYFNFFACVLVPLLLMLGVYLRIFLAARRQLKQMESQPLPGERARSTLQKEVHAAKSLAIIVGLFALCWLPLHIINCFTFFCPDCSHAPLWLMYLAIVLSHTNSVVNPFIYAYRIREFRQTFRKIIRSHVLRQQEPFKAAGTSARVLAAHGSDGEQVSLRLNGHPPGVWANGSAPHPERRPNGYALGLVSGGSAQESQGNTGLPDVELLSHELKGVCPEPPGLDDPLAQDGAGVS

On to `COc1ncc(C2=CCOCC2)c2sc(NC(=O)N3CCC(N4C(=O)CCC4=O)CC3)nc12` [Compound 100, 4-(2,5-Dioxo-pyrrolidin-1-yl)-piperidine-1-carboxylic acid [7-(3,6-dihydro-2H-pyran-4-yl)-4-methoxy-thiazolo[4,5-c]pyridin-2-yl]-amide], for which the IC50 on human A2B receptor is less than 10 nM; at human A1 receptor, less than 1000 nM; on human A3 receptor, greater than 1000 nM; with mouse Pan T cells, less than 100 nM; at human A2A receptor [1], less than 10 nM; at human A2A receptor [2], less than 10 nM.
Consider `COc1nc(F)c(N2CCOCC2)c2sc(NC(=O)N3CCC4(CCCOC4)C3)nc12` (stereo not drawn) [Compound 7, 7-Oxa-2-aza-spiro[4.5]decane-2-carboxylic acid (6-fluoro-4-methoxy-7-morpholin-4-yl-thiazolo[4,5-c]pyridin-2-yl)-amide], for which the IC50 was less than 10 nM on human A2B receptor; greater than 1000 nM at human A1 receptor; greater than 1000 nM on human A3 receptor; less than 10 nM in the assay with mouse Pan T cells; less than 10 nM at human A2A receptor [1]; less than 10 nM at human A2A receptor [2].
Turning to `COc1nc(F)c(C2CCOCC2)c2sc(NC(=O)c3ccc(C(=O)N(C)CCO)cc3)nc12` [Compound 50, N-[6-Fluoro-4-methoxy-7-(tetrahydro-pyran-4-yl)-thiazolo[4,5-c]pyridin-2-yl]-N′-(2-hydroxy-ethyl)-N′-methyl-terephthalamide], the IC50 at human A2B receptor was less than 10 nM; on human A1 receptor, greater than 1000 nM; at human A3 receptor, greater than 1000 nM; in the assay on mouse Pan T cells, less than 100 nM; at human A2A receptor [1], less than 10 nM; at human A2A receptor [2], less than 10 nM.
In the case of `CNc1cccc(-c2cnc(OC)c3nc(NC(=O)N4CCC5(CCOCC5)C4)sc23)c1` [Compound 112, 8-Oxa-2-aza-spiro[4.5]decane-2-carboxylic acid [4-methoxy-7-(3-methylamino-phenyl)-thiazolo[4,5-c]pyridin-2-yl]-amide], the IC50 on human A2B receptor was less than 100 nM; on human A1 receptor, greater than 1000 nM; on human A3 receptor it was greater than 1000 nM; in the assay on mouse Pan T cells it was less than 10 nM; at human A2A receptor [1] it was less than 10 nM; at human A2A receptor [2] it was less than 10 nM.
For `COc1ncc(-c2ccccc2)c2sc(NC(=O)N3CC[C@@H](CN)C3)nc12` [Compound 3, (S)-3-Aminomethyl-pyrrolidine-1-carboxylic acid (4-methoxy-7-phenyl-thiazolo[4,5-c]pyridin-2-yl)-amide], the IC50 was less than 10 nM on human A2B receptor; less than 1000 nM at human A1 receptor; greater than 1000 nM at human A3 receptor; less than 10 nM with mouse Pan T cells; less than 10 nM at human A2A receptor [1]; less than 10 nM on human A2A receptor [2].
Take `COc1ncc(-c2ccccc2)c2sc(NC(=O)N3CCC(N4C(=O)CNC4=O)CC3)nc12` [Compound 137, 4-(2,5-Dioxo-imidazolidin-1-yl)-piperidine-1-carboxylic acid (4-methoxy-7-phenyl-thiazolo[4,5-c]pyridin-2-yl)-amide]: the IC50 on human A2B receptor was less than 10 nM; at human A1 receptor it was less than 1000 nM; at human A3 receptor, greater than 1000 nM; in the assay on mouse Pan T cells, less than 10 nM; on human A2A receptor [1], less than 10 nM; at human A2A receptor [2], less than 10 nM.
As to `COc1ncc(C2=CCOCC2)c2sc(NC(=O)N3CCC(N4C(=O)CNC4=O)CC3)nc12` [Compound 131, 4-(2,5-Dioxo-imidazolidin-1-yl)-piperidine-1-carboxylic acid [7-(3,6-dihydro-2H-pyran-4-yl)-4-methoxy-thiazolo[4,5-c]pyridin-2-yl]-amide], the IC50 on human A2B receptor is less than 10 nM; at human A1 receptor, less than 1000 nM; on human A3 receptor it was greater than 1000 nM; in the assay with mouse Pan T cells it was less than 100 nM; on human A2A receptor [1], less than 10 nM; at human A2A receptor [2], less than 10 nM.
With `COc1ncc(-c2ccccc2)c2sc(NC(=O)N3CCC(N4C(=O)CCC4=O)CC3)nc12` [Compound 99, 4-(2,5-Dioxo-pyrrolidin-1-yl)-piperidine-1-carboxylic acid (4-methoxy-7-phenyl-thiazolo[4,5-c]pyridin-2-yl)-amide], the IC50 is less than 10 nM on human A2B receptor; greater than 1000 nM at human A1 receptor; greater than 1000 nM at human A3 receptor; less than 100 nM with mouse Pan T cells; less than 100 nM on human A2A receptor [1]; less than 10 nM on human A2A receptor [2].
With `COc1ncc(C2=CCOCC2)c2sc(NC(=O)N3CCC4(CCNCC4)C3)nc12` [Compound 98, 2,8-Diaza-spiro[4.5]decane-2-carboxylic acid [7-(3,6-dihydro-2H-pyran-4-yl)-4-methoxy-thiazolo[4,5-c]pyridin-2-yl]-amide], the IC50 at human A2B receptor was less than 100 nM; at human A1 receptor, greater than 1000 nM; at human A3 receptor, greater than 1000 nM; in the assay on mouse Pan T cells it was less than 100 nM; at human A2A receptor [1], less than 10 nM; at human A2A receptor [2], less than 10 nM.
For the molecule `COc1ncc(C2=CCOCC2)c2sc(NC(=O)N3CCC4(CCCNC4)C3)nc12` (stereo not drawn) [Compound 102, 2,7-Diaza-spiro[4.5]decane-2-carboxylic acid [7-(3,6-dihydro-2H-pyran-4-yl)-4-methoxy-thiazolo[4,5-c]pyridin-2-yl]-amide], the IC50 on human A2B receptor was less than 100 nM; at human A1 receptor, greater than 1000 nM; at human A3 receptor it was greater than 1000 nM; in the assay with mouse Pan T cells, less than 10 nM; at human A2A receptor [1] it was less than 10 nM; at human A2A receptor [2] it was less than 10 nM.
Regarding `COc1ncc(-c2ccccc2)c2sc(NC(=O)N3CC[C@H](CN)C3)nc12` [Compound 1, (R)-3-Aminomethyl-pyrrolidine-1-carboxylic acid (4-methoxy-7-phenyl-thiazolo[4,5-c]pyridin-2-yl)-amide], the IC50 on human A2B receptor is less than 100 nM; at human A1 receptor, greater than 1000 nM; on human A3 receptor, greater than 1000 nM; in the assay on mouse Pan T cells it was less than 100 nM; on human A2A receptor [1], less than 10 nM; on human A2A receptor [2] it was less than 10 nM.
Take `COc1nc(F)c(N2CCOCC2)c2sc(NC(=O)N3CC[C@]4(CCCOC4)C3)nc12` [Compound 10, (R)-7-Oxa-2-aza-spiro[4.5]decane-2-carboxylic acid (6-fluoro-4-methoxy-7-morpholin-4-yl-thiazolo[4,5-c]pyridin-2-yl)-amide]: the IC50 was less than 100 nM on human A2B receptor; greater than 1000 nM at human A1 receptor; greater than 1000 nM at human A3 receptor; less than 10 nM in the assay on mouse Pan T cells; less than 10 nM on human A2A receptor [1]; less than 10 nM at human A2A receptor [2].
